The target of this assay is SMARCA2 (Homo sapiens (Human), UniProt P51531). As to the kind of experiment: SMARCA2 HiBiT degradation assay in HEK293T cells. The assay is classed as cell-based. Particulars: 293T HiBiT assay, 24 h; for DC50: read-out: DC50 (SM2-293T) SMARCA2 degradation potency; for Dmax: HEK-293T, read-out: Dmax % (SM2-293T) maximum SMARCA2 degradation within the concentrations tested. The protocol: HiBiT peptide knock-in of SMARCA2 in LgBiT expressing HEK293T cells was performed by CRISPR-mediated tagging system as described Promega. The homozygous HiBiT knock-in on c-terminus SMARCA2 was confirmed by sanger sequence. SMARCA2-HiBiT knock-in Hela monoclonal cell (CS302366) and SMARCA4-HiBiT knock-in Hela monoclonal cell (CS3023226) were purchased from Promega. The heterozygous HiBiT-knock-in was confirmed by sanger sequence in both SMARCA2-HiBiT and SMARCA4-HiBiT monoclonal cells. Compounds were prepared in a low dead volume plate at 3-fold serial dilution, and then transferred 25 nL/well into a 384 well plate (Corning: #356661) by Agilent Bravo liquid dispenser. SMARCA2-HiBiT monoclonal HEK293T cells were added at 5,000/well/25 uL into the compound containing 384 well plate. After 24 h incubation, 25 uL/well of Nano-Glo HiBiT Lytic detection buffer (Promega: N3050) was added to the wells and incubate for 10 min on a shaker, centrifuged for 5 min, and then RLU was detected on a microplate reader (Envision, PerkinElmer). The RLU ratio values are normalized to percent inhibition as follows: % inhibition=((HC−LC)−(compound−LC))/(HC−LC))*100, where HC=high control=mean signal of DMSO only; LC=low control=mean signal of 100% inhibition of RLU by 1 μM PRT1001728. An 11-point dose response curve for each compound will be generated using normalized % inhibition to determine IC50 values based on the equation: Y=Bottom+((Top-Bottom)/(1+((IC50/X)^Slope))), where Y is the % inhibition in the presence of X inhibitor concentration; Top=the top plateau of the curve; Bottom=the bottom plateau of the curve; Slope=Hill coefficient; DC50=concentration of compound with 50% degradation in relation to top/high control. DC50 values were determined by using XLfit Model 205.
(With HiBiT, luminescence reflects the tagged protein that the partner subunit can reach.)

Bounds are passed on as bounds.

In US20240018158A1, “BRM TARGETING COMPOUNDS AND ASSOCIATED METHODS OF USE” (Prelude Therapeutics Incorporated, priority 2020, published 2024) one finds DC50 and Dmax data, which are given here for twelve molecules.

Chain of SMARCA2 (P51531 whole entry): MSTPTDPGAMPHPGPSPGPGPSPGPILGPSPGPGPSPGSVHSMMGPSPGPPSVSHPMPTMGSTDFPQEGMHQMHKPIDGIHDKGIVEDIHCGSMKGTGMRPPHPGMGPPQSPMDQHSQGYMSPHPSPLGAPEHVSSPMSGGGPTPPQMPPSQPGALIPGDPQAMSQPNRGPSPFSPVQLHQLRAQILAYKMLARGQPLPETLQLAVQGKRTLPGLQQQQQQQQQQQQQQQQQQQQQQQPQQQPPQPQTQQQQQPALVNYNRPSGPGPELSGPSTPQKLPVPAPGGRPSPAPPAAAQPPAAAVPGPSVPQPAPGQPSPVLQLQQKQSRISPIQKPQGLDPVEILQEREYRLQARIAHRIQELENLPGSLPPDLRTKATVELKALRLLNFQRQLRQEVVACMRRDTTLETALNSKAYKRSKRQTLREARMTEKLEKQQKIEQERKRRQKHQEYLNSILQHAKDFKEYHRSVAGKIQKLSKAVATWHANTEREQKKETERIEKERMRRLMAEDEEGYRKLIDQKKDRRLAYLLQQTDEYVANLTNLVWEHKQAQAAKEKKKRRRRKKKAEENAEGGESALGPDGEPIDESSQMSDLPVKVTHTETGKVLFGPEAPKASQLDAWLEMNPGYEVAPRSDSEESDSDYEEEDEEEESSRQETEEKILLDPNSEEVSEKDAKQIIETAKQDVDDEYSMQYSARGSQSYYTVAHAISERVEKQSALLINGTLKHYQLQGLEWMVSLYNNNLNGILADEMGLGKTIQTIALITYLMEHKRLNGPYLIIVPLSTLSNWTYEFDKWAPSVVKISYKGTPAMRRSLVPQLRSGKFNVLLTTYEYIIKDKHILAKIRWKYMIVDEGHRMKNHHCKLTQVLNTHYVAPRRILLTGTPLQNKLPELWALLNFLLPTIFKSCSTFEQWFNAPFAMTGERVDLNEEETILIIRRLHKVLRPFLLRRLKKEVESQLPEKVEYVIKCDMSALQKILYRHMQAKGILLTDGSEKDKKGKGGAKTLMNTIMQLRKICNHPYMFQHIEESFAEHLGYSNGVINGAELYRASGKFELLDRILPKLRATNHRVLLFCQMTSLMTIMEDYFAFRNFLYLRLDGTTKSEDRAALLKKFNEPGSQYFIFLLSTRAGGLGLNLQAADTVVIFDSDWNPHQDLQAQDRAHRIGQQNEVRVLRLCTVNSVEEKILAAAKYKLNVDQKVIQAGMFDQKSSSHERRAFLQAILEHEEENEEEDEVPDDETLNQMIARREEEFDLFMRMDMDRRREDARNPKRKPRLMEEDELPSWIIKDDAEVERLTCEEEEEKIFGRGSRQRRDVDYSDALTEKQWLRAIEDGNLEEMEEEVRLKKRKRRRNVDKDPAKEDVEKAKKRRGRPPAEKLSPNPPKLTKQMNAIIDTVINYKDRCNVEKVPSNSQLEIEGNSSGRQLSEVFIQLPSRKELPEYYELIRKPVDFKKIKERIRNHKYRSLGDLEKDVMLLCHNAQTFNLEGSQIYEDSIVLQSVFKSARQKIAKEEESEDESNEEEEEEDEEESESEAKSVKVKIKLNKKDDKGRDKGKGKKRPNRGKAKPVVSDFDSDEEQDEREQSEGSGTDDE

On to `Cc1ncsc1-c1ccc([C@H](C)NC(=O)[C@@H]2C[C@@H](O)CN2C(=O)[C@@H](c2cc(CN3CCC(N4CCN5c6cc(-c7ccccc7O)nnc6NC[C@H]5C4)CC3)no2)C(C)C)cc1` [Example 39, (2S,4R)-4-hydroxy-1-((R)-2-(3-((4-((S)-2-(2-hydroxyphenyl)-5,6,6a,7,9,10-hexahydro-8H-pyrazino[1′,2′:4,5]pyrazino[2,3-c]pyridazin-8-yl)piperidin-1-yl)methyl)isoxazol-5-yl)-3-methylbutanoyl)-N-((S)-1-(4-(4-methylthiazol-5-yl)phenyl)ethyl)pyrrolidine-2-carboxamide], for which the DC50 (in general, the midpoint of the concentration-degradation curve) is less than 100 nM and the Dmax was more than 75%.
Taken in the same sequence, the figures for `COc1cc(-c2scnc2C)ccc1[C@H](C)NC(=O)[C@@H]1C[C@@H](O)CN1C(=O)[C@@H](c1cc(OCCN2CCC(CN3CCN4c5cc(-c6ccccc6O)nnc5NC[C@H]4C3)CC2)no1)C(C)C` [Example 40, (2S,4R)-4-hydroxy-1-((R)-2-(3-(2-(4-(((S)-2-(2-hydroxyphenyl)-5,6,6a,7,9,10-hexahydro-8H-pyrazino[1′,2′:4,5]pyrazino[2,3-c]pyridazin-8-yl)methyl)piperidin-1-yl)ethoxy)isoxazol-5-yl)-3-methylbutanoyl)-N-((S)-1-(2-methoxy-4-(4-methylthiazol-5-yl)phenyl)ethyl)pyrrolidine-2-carboxamide] were less than 100 nM and more than 75%.
With `Cc1ncsc1-c1ccc([C@H](C)NC(=O)[C@@H]2C[C@@H](O)CN2C(=O)[C@@H](c2cc(OCCN3CCC(N4CCC(N5CCN6c7cc(-c8ccccc8O)nnc7NC[C@H]6C5)CC4)CC3)no2)C(C)C)cc1` [Example 44, (2S,4R)-4-hydroxy-1-((R)-2-(3-(2-(4-((S)-2-(2-hydroxyphenyl)-5,6,6a,7,9,10-hexahydro-8H-pyrazino[1′,2′:4,5]pyrazino[2,3-c]pyridazin-8-yl)-[1,4′-bipiperidin]-1-yl)ethoxy)isoxazol-5-yl)-3-methylbutanoyl)-N-((S)-1-(4-(4-methylthiazol-5-yl)phenyl)ethyl)pyrrolidine-2-carboxamide], the DC50 is less than 100 nM and the Dmax was more than 75%.
Taken in the same sequence, the figures for `Cc1ncsc1-c1ccc([C@H](C)NC(=O)[C@@H]2C[C@@H](OC(=O)C(C)C)CN2C(=O)[C@@H](c2cc(OCCN3CCC(CN4CCN5c6cc(-c7ccccc7O)nnc6NC[C@H]5C4)CC3)no2)C(C)C)cc1` [Example 52, (3R,5S)-1-((R)-2-(3-(2-(4-(((S)-2-(2-hydroxyphenyl)-5,6,6a,7,9,10-hexahydro-8H-pyrazino[1′,2′:4,5]pyrazino[2,3-c]pyridazin-8-yl)methyl)piperidin-1-yl)ethoxy)isoxazol-5-yl)-3-methylbutanoyl)-5-(((S)-1-(4-(4-methylthiazol-5-yl)phenyl)ethyl)carbamoyl)pyrrolidin-3-yl isobutyrate] were less than 100 nM and more than 75%.
Consider `Cc1ncsc1-c1ccc([C@H](C)NC(=O)[C@@H]2C[C@@H](O)CN2C(=O)C(c2cc(COC(=O)N3CCC(N4CCN5c6cc(-c7ccccc7O)nnc6NC[C@H]5C4)CC3)no2)C(C)C)cc1` (stereo partly drawn) [Example 53, (5-(1-((2S,4R)-4-hydroxy-2-(((S)-1-(4-(4-methylthiazol-5-yl)phenyl)ethyl)carbamoyl)pyrrolidin-1-yl)-3-methyl-1-oxobutan-2-yl)isoxazol-3-yl)methyl 4-((S)-2-(2-hydroxyphenyl)-5,6,6a,7,9,10-hexahydro-8H-pyrazino[1′,2′:4,5]pyrazino[2,3-c]pyridazin-8-yl)piperidine-1-carboxylate], for which the DC50 was less than 100 nM and the Dmax was more than 75%.
Take `Cc1ncsc1-c1ccc([C@H](C)NC(=O)[C@@H]2C[C@@H](O)CN2C(=O)[C@@H](NC(=O)COCCN2CCN3c4cc(-c5ccccc5O)nnc4NCC3C2)C(C)(C)C)cc1` (stereo partly drawn) [Example 65, (2S,4R)-4-hydroxy-1-((2S)-2-(2-(2-(2-(2-hydroxyphenyl)-5,6,6a,7,9,10-hexahydro-8H-pyrazino[1′,2′:4,5]pyrazino[2,3-c]pyridazin-8-yl)ethoxy)acetamido)-3,3-dimethylbutanoyl)-N-((S)-1-(4-(4-methylthiazol-5-yl)phenyl)ethyl)pyrrolidine-2-carboxamide]: the DC50 was in the range of 100 to 1000 nM and the Dmax was more than 75%.
Taken in the same sequence, the figures for `Cc1ncsc1-c1ccc([C@H](C)NC(=O)[C@@H]2C[C@@H](O)CN2C(=O)[C@@H](NC(=O)CN2CC(N3CCN4c5cc(-c6ccccc6O)nnc5NCC4C3)C2)C(C)(C)C)cc1` (stereo partly drawn) [Example 66, (2S,4R)-4-hydroxy-1-((2S)-2-(2-(3-(2-(2-hydroxyphenyl)-5,6,6a,7,9,10-hexahydro-8H-pyrazino[1′,2′:4,5]pyrazino[2,3-c]pyridazin-8-yl)azetidin-1-yl)acetamido)-3,3-dimethylbutanoyl)-N-((S)-1-(4-(4-methylthiazol-5-yl)phenyl)ethyl)pyrrolidine-2-carboxamide] were 100 to 1000 nM and more than 75%.
Taken in the same sequence, the figures for `Cc1ncsc1-c1ccc([C@H](C)NC(=O)[C@@H]2C[C@@H](O)CN2C(=O)[C@@H](c2cc(OC(C)CN3CCCC(CN4CCN5c6cc(-c7ccccc7O)nnc6NC[C@H]5C4)CC3)no2)C(C)C)cc1` (stereo partly drawn) [Example 67, (2S,4R)-4-hydroxy-1-((2R)-2-(3-((1-(4-(((S)-2-(2-hydroxyphenyl)-5,6,6a,7,9,10-hexahydro-8H-pyrazino[1′,2′:4,5]pyrazino[2,3-c]pyridazin-8-yl)methyl)azepan-1-yl)propan-2-yl)oxy)isoxazol-5-yl)-3-methylbutanoyl)-N-((S)-1-(4-(4-methylthiazol-5-yl)phenyl)ethyl)pyrrolidine-2-carboxamide] were less than 100 nM and more than 75%.
Regarding `Cc1ncsc1-c1ccc([C@H](C)NC(=O)[C@@H]2C[C@@H](O)CN2C(=O)[C@@H](c2cc(CCCN3CCN4c5cc(-c6ccccc6O)nnc5NCC4C3)no2)C(C)C)cc1` (stereo partly drawn) [Example 74, (2S,4R)-4-hydroxy-1-((2R)-2-(3-(3-(2-(2-hydroxyphenyl)-5,6,6a,7,9,10-hexahydro-8H-pyrazino[1′,2′:4,5]pyrazino[2,3-c]pyridazin-8-yl)propyl)isoxazol-5-yl)-3-methylbutanoyl)-N-((S)-1-(4-(4-methylthiazol-5-yl)phenyl)ethyl)pyrrolidine-2-carboxamide], the DC50 was less than 100 nM and the Dmax was more than 75%.
`Cc1ncsc1-c1ccc([C@H](C)NC(=O)[C@@H]2C[C@@H](O)CN2C(=O)C(c2cc(COc3cc(N4CCN5c6cc(-c7ccccc7O)nnc6NCC5C4)ccn3)no2)C(C)C)cc1` (stereo partly drawn) [Example 75, (2S,4R)-4-hydroxy-1-(2-(3-(((4-(2-(2-hydroxyphenyl)-5,6,6a,7,9,10-hexahydro-8H-pyrazino[1′,2′:4,5]pyrazino[2,3-c]pyridazin-8-yl)pyridin-2-yl)oxy)methyl)isoxazol-5-yl)-3-methylbutanoyl)N-((S)-1-(4-(4-methylthiazol-5-yl)phenyl)ethyl)pyrrolidine-2-carboxamide]: the DC50 is 100 to 1000 nM and the Dmax was more than 75%.
Turning to `Cc1ncsc1-c1ccc([C@H](C)NC(=O)[C@@H]2C[C@@H](O)CN2C(=O)[C@@H](c2cc(OCCN3CCC(N4CCN5c6cc(-c7ccccc7O)nnc6NC[C@@H]5C4)CC3)no2)C(C)C)cc1` [Example 77, (2S,4R)-4-hydroxy-1-((R)-2-(3-(2-(4-((R)-2-(2-hydroxyphenyl)-5,6,6a,7,9,10-hexahydro-8H-pyrazino[1′,2′:4,5]pyrazino[2,3-c]pyridazin-8-yl)piperidin-1-yl)ethoxy)isoxazol-5-yl)-3-methylbutanoyl)-N-((S)-1-(4-(4-methylthiazol-5-yl)phenyl)ethyl)pyrrolidine-2-carboxamide], the DC50 was less than 100 nM and the Dmax was more than 75%.
In the case of `Cc1ncsc1-c1ccc([C@H](C)NC(=O)[C@@H]2C[C@@H](O)CN2C(=O)[C@@H](c2cc(OCCN3C4CCC3CC(CN3CCN5c6cc(-c7ccccc7O)nnc6NCC5C3)C4)no2)C(C)C)cc1` (stereo partly drawn) [Example 78, (2S,4R)-4-hydroxy-1-((2R)-2-(3-(2-(3-((2-(2-hydroxyphenyl)-5,6,6a,7,9,10-hexahydro-8H-pyrazino[1′,2′:4,5]pyrazino[2,3-c]pyridazin-8-yl)methyl)-8-azabicyclo[3.2.1]octan-8-yl)ethoxy)isoxazol-5-yl)-3-methylbutanoyl)-N-((S)-1-(4-(4-methylthiazol-5-yl)phenyl)ethyl)pyrrolidine-2-carboxamide], the DC50 is less than 100 nM and the Dmax was more than 75%.
